Test results from patent US3947569A, “Process for preparing the releasing hormone of luteinizing hormone (LH) and of follicle stimulating hormone (FSH), salts and compositions thereof, and intermediates therefor” (American Home Products Corporation, priority 1974, dated 1976).

Tests used:
LH and FSH release [1] = assay: bioassays / biological equivalence to the natural hormone (not specified further)
ovulation [2] = assay: modification of the ovulation induction assay in the rat (Arimura et al., Endocrinology 80, 515); assay type: in vivo
Description: (§1) Exp. Biol. Med., 128, 807 (1968).

LH and FSH release [3] = assay: LH- and FSH-releasing activity tested in the radioimmunoassay of Niswender et al.; assay type: in vivo; conditions: acid addition salt
Description: as §1

ovulation [4] = assay: induction of ovulation in the hamster (Arimura et al., Science 174, 511); assay type: in vivo
Description: as §1

Compound	pharmacological / biological equivalence (LH and FSH release [1]; compared with the decapeptide or the natural hormone)	activity in induction of ovulation compared with the natural hormone (ovulation [2]; rat)	time to ovulation following administration (ovulation [2]; rodents such as rats or hamsters: rat) [h]	LH- and FSH-releasing activity compared with the natural hormone (LH and FSH release [3])	potency in bioassays compared with the natural product (LH and FSH release [1]; hydrochloride salt)	activity in induction of ovulation compared with the natural hormone (ovulation [4]; hamster)	time to ovulation following administration (ovulation [4]; rodents such as rats or hamsters: hamster) [h]
5-Oxo-L-Prolyl-L-Histidyl-L-Tryptophyl-L-Seryl-L-Tyrosylglycyl-L-Leucyl-L-Arginyl-L-Prolylglycinamide (I) Zinc Complex [Example 19]	pharmacologically equivalent to the decapeptide	–	–	–	–	–	–
CC(C)C[C@H](NC(=O)CNC(=O)[C@H](Cc1ccc(O)cc1)NC(=O)[C@H](CO)NC(=O)[C@H](Cc1c[nH]c2ccccc12)NC(=O)[C@H](Cc1c[nH]cn1)NC(=O)[C@@H]1CCC(=O)N1)C(=O)N[C@@H](CCCNC(=N)N)C(=O)N1CCC[C@H]1C(=O)NCC(N)=O [I, 5-oxo-L-prolyl-L-histidyl-L-tryptophyl-L-seryl-L-tyrosylglycyl-L-leucyl-L-arginyl-L-prolylglycinamide]	–	equally active	≤ 18	as active as the natural hormone	as potent as the latter	equally active	≤ 18
